According to patent US12133915B2, “Method of treating epilepsy” (ALEXZA PHARMACEUTICALS, INC., priority 2016, dated 2024):

How the values were obtained:
dogs [1] = assay: 28-day GLP inhalation toxicity study with 14-day recovery in dogs; conditions: 28-day inhalation
rats = assay: 14-day inhalation toxicity study in rats; type: in vivo
Experimental: In the 14-day inhalation toxicity study in rats, the no-adverse-effect level was considered to be 10.3 mg/kg/day.

dogs [2] = assay: 5-day exploratory inhalation toxicity study in dogs; type: in vivo; conditions: 5-day inhalation
Experimental: In a 5-day exploratory inhalation toxicity study in dogs, the no-observed-adverse-effect level was 1.5 mg/kg/day for treatment-related histopathological findings.

[3] = tested on: patients with photosensitive epilepsy (IPS-induced photoparoxysmal EEG response); assay: Intermittent photic stimulation (IPS) photosensitivity model, Phase 2a proof-of-concept study; type: in vivo, human
Experimental: Example 1 evaluated the ability of inhaled alprazolam to rapidly suppress photosensitivity in a double blind placebo-controlled crossover proof of concept study. This study was an in-clinic, randomized, placebo-controlled, double-blind design, 5-way crossover study design, which allowed for small patient size. Epilepsy patients were evaluated using an Intermittent Photic Stimulation model, allowing for screening for antiepileptic effects without triggering seizures or convulsive responses. Three doses of alprazolam were investigated along with placebo (twice) in 5 subjects.
In patients with photosensitive epilepsy, intermittent photic stimulation was used to elicit generalized epileptiform EEG activity. The subject is exposed to certain frequency of light stimulation (flash frequencies), and photosensitivity range measured. The model has been used to identify antiepileptic effects on a number of drugs.
The primary objectives of the study were to assess 1) the effects of inhaled alprazolam on the IPS-induced photoparoxysmal EEG response in patients with epilepsy, 2) the sedative properties of these doses in order to select maximally-effective dose with the least sedation for further clinical studies, and 3) overall safety. The primary endpoint was the change in the Standard Photosensitivity Range (SPR) in subjects receiving each dose of inhaled alprazolam.
(§1) Patients at least 18 years old with photosensitive epilepsy at 3 sites were tested on a baseline day, and then received in randomized order either inhaled placebo (on 2 days) or 0.5, 1 or 2 mg inhaled alprazolam delivered using a hand-held inhaled alprazolam device. Study days were separated by at least 1 week. Presence (and degree) of photosensitivity was measured predose, then at 2 min, 10 min, 30 min, 1, 2, 4 and 6 hours post-dose. Plasma concentration of study drug was measured at each time point. Sedation was assessed at each time point using the 100-mm linear visual analogue scale (VAS).
The test subjects were exposed to intermittent photic stimulation (14 frequencies, from 2 to 60 Hz), starting with lowest frequency and increasing frequency stepwise until a photosensitivity response was elicited. The test was repeated with the highest frequency and decreased frequency. The results can be summarized in a quantitative measure known as the Standardized Photosensitive Range (SPR). The Maximum SPR is 14. In the example shown, SPR is 8. The Primary endpoint is reduction in mean SPR, which is an indication of antiseizure activity. Patients that have a relatively stable SPR were enrolled in the study to allow for small study size.

[4] = Pharmacokinetic study in dogs, intravenous or inhalation administration; conditions: dog, in vivo
Excerpt: In a pharmacokinetic (PK) study in dogs, alprazolam PK was profiled following either intravenous or inhalation administration.

cytochrome P450 = assay: In vitro cytochrome P450 inhibition potential; type: in vitro ADME; conditions: maximum alprazolam concentration tested
Excerpt: (§2) In vitro drug transporter and cytochrome P450 inhibition potential were also studied.

dogs [5] = assay: Cardiovascular and respiratory safety study in dogs, intravenous dosing; type: in vivo
Experimental: However, these changes were within normal ranges and not considered biologically significant. The plasma concentration of alprazolam associated with modest cardiovascular or respiratory effects exceeded 900 ng/mL and would not be expected to induce any significant changes at the range of doses planned considered for clinical studies (0.5 to 2.0 mg).

[6] = tested on: patients with photosensitive epilepsy; assay: Sedation by visual analogue scale (VAS), Phase 2a study; type: in vivo, human
Experimental: as §1
(§3) Secondary study endpoints included assessment of sedation using two visual analogue scales (VAS); correlation of plasma concentrations of inhaled alprazolam with PD effects on the SPR range; correlation of plasma concentrations of inhaled alprazolam with PD effects on sedation; and assessment of adverse events and changes in the neurological examination.
Assessment of the sedation using 2 visual analogue scales was made. […] A correlation of plasma concentrations of inhaled alprazolam with pharmacodynamic effects on sedation was made. […] Maximum sedation occurred within about two minutes of administration of alprazolam. Clinical observations support early onset of sedation at 30 seconds.

drug transporter = assay: In vitro drug transporter inhibition potential; type: in vitro ADME; conditions: maximum alprazolam concentration tested
Excerpt: as §2

[7] = Aerosol particle size distribution by Next Generation Pharmaceutical Impactor (NGI); type: physicochemical; conditions: condensation aerosol, FIG. 4
Excerpt: At least 80% by weight of the alprazolam aerosol particles have a size less than 5 microns, preferably at least 90% by weight of the alprazolam aerosol particles have a size less than 5 microns. At least 50% by weight of the alprazolam aerosol particles have a size less than 2 microns, preferably at least 50% by weight of the alprazolam aerosol particles have a size less than 1 micron. The Next Generation Pharmaceutical Impactor (NGI) was used to determine the particle size distribution.

[8] = Plasma concentration of alprazolam in phase 1 and phase 2a clinical trials; type: in vivo, human
Experimental: as §1
FIGS. 5A and 5B show graphs of the mean plasma concentration of alprazolam in phase 1 and phase 2a clinical trials respectively. The graphs indicate a rapid uptake of alprazolam into the plasma after […] administration of the condensation aerosol. […] Mean peak plasma concentration occurred one to two minutes after administration of the alprazolam […] aerosol.

[9] = tested on: patients with photosensitive epilepsy; assay: Adverse events and tolerability, Phase 2a study; type: in vivo, human; conditions: for Cough, subjects with adverse event / Dizziness, subjects with adverse event / Dysgeusia, subjects with adverse event / Oral Dysaesthesia, subjects with adverse event / Sedation/somnolence, subjects with adverse event: N = 5
Excerpt: as §3
An assessment of adverse events and changes in the neurological examination were made. The safety profile was consistent with oral alprazolam.

rat = assay: Rat inhalation MTD study; type: in vivo
[10] = cited from earlier work
[11] = all treatment arms of the crossover (incl. placebo)

SMILES: Cc1nnc2n1-c1ccc(Cl)cc1C(c1ccccc1)=NC2 [alprazolam, 8-chloro-1-methyl-6-phenyl-4H-[1,2,4]triazolo [4,3-α][1,4]-benzodiazepine]
- deaths during the study (dogs [1]): no deaths
- immunogenic potential (dogs [1]): no immunoglobulin or hypersensitivity response
- no-observed-effect level for histopathological findings (dogs [1]; females): 4.4 mg/kg/day
- no-observed-effect level for histopathological findings (dogs [1]; males): 2.8 mg/kg/day
- no-adverse-effect level (rats): 10.3 mg/kg/day
- no-observed-adverse-effect level for treatment-related histopathological findings (dogs [2]): 1.5 mg/kg/day
- effect on photosensitivity ([3]; 1 mg and 2 mg doses): almost complete elimination of the photosensitivity
- time reduction of SPR was maintained ([3]; after administration): at least six
- change in mean standardized photosensitivity range (SPR) ([3]; all doses (0.5, 1, 2 mg inhaled)): decreased
- time to maximal or near-maximal effect on SPR ([3]; all doses, post dose): ≤ 2 min
- maximal decrease in SPR ([3]; at least at the earlier time points): approximately 5 steps
- duration of effects on SPR ([3]; higher doses): 4 h
- onset of SPR response ([3]; in vivo): less than two
- time to suppression of epileptic activity / effects on EEG ([3]; patients with photosensitive epilepsy): ≤ 2 min
- epileptiform activity in post-dose EEG traces ([3]; representative patient, FIG. 7B): complete abolishment of epileptiform activity
- Tmax ([4]; inhaled or intranasal, inhalation): < 1 min
- bioavailability ([4]; inhaled, inhalation versus intravenous): 85 to 96%
- cytochrome P450 inhibition (cytochrome P450): No inhibition
- plasma concentration associated with modest cardiovascular or respiratory effects (dogs [5]; intravenous): exceeded 900 ng/mL
- heart rate (dogs [5]; intravenous over 5 sec): transient increase
- respiratory rate (dogs [5]; intravenous over 5 sec): transient decrease
- sedation, relation to dose ([6]; 0.5, 1, 2 mg): dose related
- time to maximum sedation (VAS) ([6]; after administration): two
- early onset of sedation, clinical observations ([6]; in vivo): 30 s
- onset of VAS (sedation) response ([6]; in vivo): less than two
- drug transporter inhibition (drug transporter): No inhibition
- mass median aerodynamic diameter (MMAD) of aerosol particles [7]: 1.2 to 1.8 microns
- PK analysis, plasma concentrations versus dose ([8]; 0.5, 1, 2 mg): dose proportionality
- time of mean peak plasma concentration ([8]; after administration of condensation aerosol): one to two
- rapid rise in alprazolam plasma levels, time ([8]; inhaled): less than 2 min
- Cough, subjects with adverse event ([9]; 0.5 mg): 2 n
- Dizziness, subjects with adverse event ([9]; 0.5 mg): 1 n
- Dysgeusia, subjects with adverse event ([9]; 0.5 mg): 2 n
- Oral Dysaesthesia, subjects with adverse event ([9]; 0.5 mg): 2 n
- Sedation/somnolence, subjects with adverse event ([9]; 0.5 mg): 1 n
- Cough, subjects with adverse event ([9]; 1 mg): 1 n
- Dizziness, subjects with adverse event ([9]; 1 mg): 0 n
- Dysgeusia, subjects with adverse event ([9]; 1 mg): 2 n
- Oral Dysaesthesia, subjects with adverse event ([9]; 1 mg): 0 n
- Sedation/somnolence, subjects with adverse event ([9]; 1 mg): 2 n
- Cough, total number of subjects experiencing an event [9, 11]: 2
- Dizziness, total number of subjects experiencing an event [9, 11]: 1
- Dysgeusia, total number of subjects experiencing an event [9, 11]: 2
- Oral Dysaesthesia, total number of subjects experiencing an event [9, 11]: 2
- Sedation/somnolence, total number of subjects experiencing an event [9, 11]: 2
- serious adverse events ([9]; doses up to 2 mg, listed as inhaled alprazolam): no reported serious adverse events
- tolerability of treatment ([9]; in vivo): well tolerated
- single inhaled dose well tolerated (rat): up to 10.8 mg/kg
- solubility in chloroform ([10]; chloroform): freely soluble
- solubility in ethanol ([10]; ethanol): soluble
- solubility in methanol ([10]; methanol): soluble
- solubility in water ([10]; water): practically insoluble
